Assay results as given in patent US20020028851A1, “Guanylhydrazones and their use to treat inflammatory conditions” (priority 1994, published 2002).
Read-outs that look alike come from different tables or passages of the source.

How the values were obtained:
RAW 264.7 cells [1] = experiment: Whole cell inhibition assay for arginine uptake; type: cell-based, murine; settings: for arginine transport % suppression of induced peak: γIFN+LPS, 8 hours
Method: In the embodiment described in the working example herein, a test population of cells was cultured for about 3 hours so that the cells became firmly adherent. Various concentrations of the potential inhibitors were then added to parallel cultures. One hour later the macrophage stimulators, e.g. including, but not limited to LPS and γIFN, were added. Eighteen hours later the cells were washed in a warm balanced salt solution supplemented with glucose. Carrier-free radiolabelled arginine was added; after 5 minutes, active uptake of arginine was stopped by washing the cell three times with buffer, chilled to 0° C., containing 10 mM unlabeled arginine to displace any externally bound label. The contents of the washed cells are solubilized in 100 μl of formic acid and counted by standard techniques.
RAW 264.7 cells are plated in standard 96-well microculture plates at a concentration of 10^5/well and allowed to adhere for from 2 hours to overnight. The medium is then replaced with medium containing the compound to be tested. One hour later, the medium is supplemented so as to contain 25 U/ml γIFN and 0.1 μg/ml LPS and the cultures incubated a further. The cells are then rinsed twice in HEPES- buffered Krebs salt solution with 0.1% glucose. Carrier-free tetra-^3H-arginine is added to each well (2.5 μCi/well with specific activity of […]) and the active uptake of arginine is allowed to continue for a 5 minute period after which the cells are rapidly cooled to 0° C. by lavage with iced saline containing 10 mM unlabeled arginine to displace any externally bound label. The contents of the washed cells are solubilized in 100 Al of formic acid and counted by standard techniques. In subsequent experiments to determine the acitivity of the inhibitors, incubations were performed for 8 hours.
This section describes experiments that measure the concentration of Compound No. 14 needed to inhibit arginine uptake and NO output. The techniques employed were described in section 7.1 supra.

TNF [2] = experiment: TNF production by LPS/γIFN-stimulated RAW 264.7 cells; type: cell-based, murine
Method: RAW 264.7 cells were plated in standard 6-well culture plates at a density of 10^6/well and allowed to adhere for from 2 hr to overnight. The medium was then replaced with medium containing the compound to be tested. One hour later, the medium was supplemented so as to contain 25 U/ml γIFN and 0.1 μg/ml LPS and the cultures incubated a further 18 hr. The medium was then collected, and cell debris removed by centrifugation. This conditioned supernatant was then assayed for the presence of TNF using standard methodologies: L929 cell cytotoxicity bioassay, radioimmunoassay or ELISA, and Western blotting with antibodies against murine TNF.

TNF [3] = experiment: Serum TNF levels after parenteral LPS; type: in vivo, rats; settings: i.p. 2.0 hours prior to LPS; measured 2-3 hours after LPS
Method: Qualitatively similar data has been obtained by measurement of the serum TNF levels in rats stimulated to produce TNF by parenteral LPS administration. Rats were given Compound No. 14, i.p., 2.0 hours prior to LPS stimulation. The serum levels of TNF were measured at between 2 and 3 hours after LPS stimulation.

IL-6 = experiment: Cytokine production by LPS/γIFN-stimulated human PBMC: IL-6; type: cell-based; settings: γIFN+LPS, 18 hr
Source text: Similar results concerning a variety of cytokines in addition to TNF, e.g., IL-6 and Macrophage Inflammatory Proteins-1α and -1β (MIP-1α and MIP-1β) were obtained using human peripheral blood as a source of monocytes. Human peripheral blood mononuclear cells (PBMC) were isolated using “FICOLL®”-based methods and plated in standard 6-well culture plates at a concentration of 10^6/well and allowed to adhere for from 2 hr to overnight whereupon non-adherent cells were washed out and the medium was then replaced with medium containing the compound to be tested. One hour later, the medium was supplemented so as to contain 25 U/ml γIFN and 0.1 μg/ml LPS and the cultures incubated a further 18 hr. The medium was then collected, and cell debris removed by centrifugation. This conditioned supernatant was then assayed for the presence of cytokines using the standard methodologies of L929 cell cytotoxicity bioassay and immunoassay (ELISA).

[4] = Pharmacokinetics by HPLC of serum; type: in vivo, rats
Method: Male Sprague-Dawley rats (Harlan Sprague Dawley, Indianapolis, Ind., USA) were anesthetized with ketamine and the right carotid artery cannulated with polyethylene tubing (PE-50). […] At 0, 5, 15, 30, 60, 90, 120, 180, 240, 300, 360 minutes 400 μl of blood was removed, stored at 4° C. for 4 hr, and then centrifuged at 15,000 ×g for 10 min, and the serum layer collected. Sodium azide was added to 0.0l v/v to prevent microbial growth and pentamidine was added to 5 μg/ml. Twenty-five μl of the resulting sample was analyzed by the HPLC method described.
The HPLC method was applied towards estimating the pharmacokinetic parameters of Compound No. 14 in adult rats receiving a 10 mg/kg dose as a single intra-arterial injection. In these experiments, the solid-phase extraction step was omitted due to the small volume of each sample, and the relatively large amount of Compound No. 14 which was recovered. Typical serum decay curves were obtained (FIG. 17, solid line), and the method of residuals, Gibaldi, M., & Perrier, D., 1982, PHARMACOKINETICS (Marcel Dekker, New York) pp. 433-444, was used to calculate the pharmacokinetic parameters (FIG. 17, dashed lines).

RAW 264.7 cells [5] = experiment: Whole cell inhibition assay for arginine uptake; type: cell-based, murine
[6] = rats, 10 mg/kg single intra-arterial injection, n=3

## CC(=NNC(=N)N)c1cc(NC(=O)CCCCCCCCC(=O)Nc2cc(C(C)=NNC(=N)N)cc(C(C)=NNC(=N)N)c2)cc(C(C)=NNC(=N)N)c1.Cl.Cl.Cl.Cl [Compound 14, N,N′-bis(3,5-diacetyl-phenyl)decanediamide tetrakis(amidinohydrazone) tetrahydrochloride]
RAW 264.7 cells [1]; dose 2 μM
  arginine transport % suppression of induced peak: 9%
RAW 264.7 cells [1]; dose 10 μM
  arginine transport % suppression of induced peak: 19%
RAW 264.7 cells [1]; dose 50 μM
  arginine transport % suppression of induced peak: 86%
RAW 264.7 cells [1]; dose 200 μM
  arginine transport % suppression of induced peak: 100%
RAW 264.7 cells [1]; exposed prior to stimulation, uptake measured at 8 hours, read-out: I.C.50 for arginine uptake
  IC50: 7.5 µM
TNF [2]; 10 μM, L929 cell bioassay, 18 hr
  reduction of TNF accumulation in the culture medium: more than 99%
TNF [2]; 5 and 25 μM
  TNF protein in the medium (Western blot): absence of TNF protein
TNF [3]
  serum TNF level vs untreated controls: about half the level of serum TNF
IL-6
  concentration that effectively inhibited production of IL-6: 10 to 20 µM
[4]; intraperitoneal or oral dosing routes (data not shown)
  absorption and bioavailability: not rapidly absorbed, and may have a low bioavailability
[4]; [6]
  distribution half-life (t½α): 2.41 ± 0.69 min
  distribution rate constant (α): 0.31 ± 0.09 min⁻¹
  elimination half-life (t½β): 5.02 ± 0.00 h
  elimination rate constant (β): 0.0023 ± 0.0000 min⁻¹
  total clearance (CL): 5.62 ± 0.47 mL/min
  volume of distribution (Vd): 2.45 ± 0.21 L
[4]; single doses of 0.4-1.0 mg/kg, from pharmacokinetic constants and FIG. 17
  peak plasma levels: > 0.5 µM
RAW 264.7 cells [5]; stimulated 8 hours previously, then exposed 10 minutes in arginine-free buffer, mean±std. err., n=3, read-out: I.C.50 for arginine uptake
  IC50: 60 ± 15 µM
RAW 264.7 cells [5]; unstimulated RAW 264.7
  sensitivity of arginine uptake of unstimulated cells: insensitive
